Measurements reported in patent EP1434565B1, “USE OF GANODERIC ACIDS AS COSMETIC AGENTS” (YVES SAINT LAURENT PARFUMS, (Société Anonyme), priority 2001, dated 2003).

Test system: MMP1 (collagénase interstitielle humaine)
Experiment: Amount of MMP-1 produced by PMA-stimulated fibroblasts (ELISA)
Assay type: cell-based, humains
Conditions: for MMP1 (ng/ml): 4 h pre-incubation, +PMA 0.1 µg/ml; for inhibition at 0.04 %: ganoderic acids 0.04 %, versus témoin + PMA, read-out: diminution de la quantité MMP1; for activity at 0.04 %: read-out: % témoin +PMA
Excerpt: Les essais figurant au tableau 2 ci-après concernent la régulation d'une enzyme, la MMP1 (collagénase interstitielle humaine) appartenant aux métalloprotéinases, de la famille des protéases, enzymes dégradant la matrice extra-cellulaire, la MMP1 dégradant particulièrement le collagène natif.
Les essais, dont les résultats figurent au tableau 2, ont donc consisté à comparer l'activité de la DHEA et des acides ganodériques B, C2 et G sur la régulation de l'activité de la MMP1 après stimulation des fibroblastes par PMA.
• Fibroblastes humains normaux profonds (type R2Ad2), utilisé au 2e passage. • Culture: 37° C, 5 % CO2 • Milieu de croissance : milieu Tebu PM-1 • Milieu d'essai : DMEM/HAMF10, vol/vol (Invitrogen 21969035 / Invitrogen 31550-023) • Hepes 15 mM (Invitrogen 1563-056) • L-glutamine 2 mM (Invitrogen 25030024) • pénicilline 50 UI/ml streptomycine 50 µg/ml (Invitrogen 15070063) • sans sérum de veau foetal
• solution stock : 10 % dans l'éthanol puis dilution à 0.1 % dans une solution de BSA délipidée à 5 mg/ml final • dilutions : en milieu de culture stérile • concentration finale testée: 0.001 % (50 µg/ml BSA 1^e conc, final) Acide Ganodérique B • solution stock : 10 % en DMSO • dilutions : en milieu de culture stérile • concentration finale testée: 0.04 % (50 µg/ml BSA final) Acide Ganodérique C2 • solution stock : 10 % en DMSO • dilutions : en milieu de culture stérile • concentration finale testée: 0.04 % (50 µg/ml BSA final) Acide Ganodérique G • solution stock : 10 % en DMSO • dilutions : en milieu de culture stérile • concentration finale testée: 0.04 % (50 µg/ml BSA final)
Les cellules ont été ensemensées à 17000 cellules par puits, en plaques 96 puits, une plaque pour chaque temps de culture. Toutes les conditions en triplicata (3 puits de culture). Les cellules ont été pré-cultivées pendant 24 h en milieu sans SVF. Après 24 h de pré-culture, les milieux ont été remplacés par un milieu équivalent contenant) les produits à l'essai ou non (contrôles) ou la DHEA à 0.001 %. Après 4 h d'incubation, une solution 10 fois concentrée de « phorbol myristate acétate » (PMA, Sigma, 0.1 µg/ml final) a été ajoutée ou non (contrôles) et les cellules ont été cultivées pendant 6 h supplémentaires.
A la fin de chaque temps de culture, les milieux de culture ont été récupérés et congelés à -80 °C pour dosage de la quantité de MMP-1 et la viabilité des tapis cellulaires a été contrôlée en utilisant un test standard de réduction du MTT.
Le dosage de MMP-1 (collagénase interstitielle humaine) a été réalisé par ELISA, à l'aide d'un kit « BIOTRACK human MMP-1, ELISA system, Amersham RPN2610 », selon les directives du fournisseur.
Résumé des conditions testées : • Modèle : fibroblastes humains • Test : dosage quantité de MMP-1 produite (protéine, ELISA) • Milieux : sans sérum • Tests : produits à l'essai, DHEA 0.001 % ou contrôles non traités, pendant 4 h • Stimulation : ajout de PMA (ou non, contrôles) et culture pendant 6 h. Produits (selon viabilités sur fibroblastes): • A.G. B 0:04 %; • A.G. C2 0.04 %; • A.G. G 0.04 %; • DHEA 10 µg/ml
Les données brutes de comptage ont été transférées et traitées sous le logiciel PRISM® (Graph Pad Software).
Les comparaisons inter-groupes ont été réalisées par analyse de variance (ANOVA) à l'aide du test de comparaison multiple de Dunnett.

[1] = Fibroblast, ganoderic acid 0,04%, normal human fibroblasts, +PMA, 6h
[2] = ganoderic acid 0,04%, normal human fibroblasts, 6h, Témoin + PMA 17,89

Row | Compound | MMP1 (ng/ml) (DHEA 0,001%, normal human fibroblasts, 6h, Témoin + PMA 10,54) | % témoin +PMA (DHEA 0,001%, normal human fibroblasts, +PMA, 6h, 360 min) [%] | activity at 0.001 % (Fibroblast, 6 h, read-out: % témoin +PMA, DHEA 0,001%, normal human fibroblasts, +PMA, 6h) [%] | inhibition at 0.04 % (Fibroblast, 6 h) [%] | activity at 0.04 % [1] [%] | MMP1 (ng/ml) [2] | effets anti-vieillissement (régulation MMP1) (result in words, comparison between ganoderic acids B, C2 and G at 0.04 %)
1 | C[C@]12CC[C@H](O)CC1=CC[C@@H]1[C@@H]2CC[C@]2(C)C(=O)CC[C@@H]12 [DHEA, DéHydroEpiAndrostérone, reference compound] | 6,38 ng/ml | 61 | 60 |  |  |  | 
2 | CC(CC(=O)CC(C)C1CC(O)C2(C)C3=C(C(=O)CC12C)C1(C)CCC(O)C(C)(C)C1CC3O)C(=O)O (stereo not shown) [A. ganodérique C2, Acide Ganodérique C2] |  |  |  | ~30 | 72 | 12,95 ng/ml | 
3 | CC(CC(=O)CC(C)C1CC(=O)C2(C)C3=C(C(=O)C(O)C12C)C1(C)CCC(O)C(C)(C)C1CC3O)C(=O)O (stereo not shown) [A. ganodérique G, Acide Ganodérique G] |  |  |  | > 40 | 57 | 10,15 ng/ml | activité supérieure aux deux autres acides ganodériques
4 | CC(CC(=O)CC(C)C1CC(=O)C2(C)C3=C(C(=O)CC12C)C1(C)CCC(O)C(C)(C)C1CC3O)C(=O)O (stereo not shown) [A. ganodérique B, Acide Ganodérique B] |  |  |  | ~30 | 76 | 13,52 ng/ml | 
